Here are results for twelve compounds from ChEMBL document CHEMBL1201862, “PubChem BioAssay data set” (2004).

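Following 48 hours of exposure in 96-well plates, responses at five concentrations were used to interpolate endpoints linearly. The concentration for 50% growth inhibition is given as GI50.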 Activity calls are given as the source filed them. No stated cut-off is given here; in the data, active = GI50 up to about 1.1 µM and inactive = higher.

What all share (experiment): growth of human tumour cells (NCI), 48 h
For assay [1], the system named is UACC-62.
Assay [2] has as its system SK-MEL-5.
The test system of assay [3] is SK-OV-3.
For assay [4], the system named is NCI-H226.
Assay [5] relates to MDA-MB-435.
Assay [6] concerns UO-31.
Assay [7] relates to SF-268.
In assay [8] the test system is SNB-75.
Assay [9] has as its system NCI-H23.
Assay [10] deals with 786-0.
The subject of assay [11] is OVCAR-5.
Assay [12] deals with MOLT-4.
Assay [13] concerns MCF7.
Assay [14] deals with SNB-19.
The test system of assay [15] is Malme-3M.
The subject of assay [16] is CAKI-1.
In assay [17] the test system is EKVX.
Assay [18] deals with CCRF-CEM.
The subject of assay [19] is Hs-578T.

`O=C(CSc1nnc(SCC(=O)NN=C2CCCCC2)s1)NN=C1CCCCC1`: the GI50 in assay [1], in assay [2], in assay [3], in [4], in [5] and in assay [6] was > 100 µM (inactive) each time. Besides, the GI50 in [7], in assay [8], in assay [9], in [10], in assay [11] and in assay [12] was > 100 µM (inactive) throughout. The GI50 in [13], in assay [14], in assay [15], in [16], in assay [17] and in [18] was > 100 µM (inactive) in each case.

`Cn1nc(-c2ccccc2)c2c(/C=C/c3ccccc3)onc2c1=O`: the GI50 is 23.8 µM (inactive) in [1]; > 100 µM (inactive) in [2]; 43.8 µM (inactive) in assay [3]; > 100 µM (inactive) in assay [4]; 6.82 µM (inactive) in [6]; 43.9 µM (inactive) in assay [7]. Further, the GI50 in [8] is 27 µM (inactive); in [9], > 100 µM (inactive); in assay [10] it was 33 µM (inactive); in assay [11], > 100 µM (inactive); in assay [12], > 100 µM (inactive); in [14], 67.3 µM (inactive). The GI50 in [15] is 71.4 µM (inactive); in [16], 69 µM (inactive); in assay [17] it was 67.1 µM (inactive); in assay [18], > 100 µM (inactive).

With `COC(=O)c1c([N+](=O)[O-])ncn1[C@H]1OC[C@@H](OC(C)=O)[C@@H](OC(C)=O)[C@@H]1OC(C)=O`, the GI50 in assay [1], in assay [3], in assay [4], in assay [5], in assay [6] and in assay [7] was > 100 µM (inactive) in each case. Moreover, the GI50 in [8], in [9], in [10], in [11], in assay [12] and in assay [13] was > 100 µM (inactive) throughout. Also, the GI50 in [14], in assay [15], in assay [16], in [17] and in assay [18] was > 100 µM (inactive) each time.

As for `CC(C)c1ccc(/C=C2\CSCC3=C2N=C(S)NC3c2ccc(C(C)C)cc2)cc1` (stereo unspecified), the GI50 in assay [1] is 88.3 µM (inactive); in assay [2] it was 27.2 µM (inactive); in assay [3] it was > 100 µM (inactive); in assay [4] it was > 100 µM (inactive); in [6], 70.6 µM (inactive); in [7] it was > 100 µM (inactive). In addition, the GI50 in assay [9] is 46.5 µM (inactive); in assay [10], > 100 µM (inactive); in assay [11], > 100 µM (inactive); in assay [12], 29.6 µM (inactive); in [13], 88.3 µM (inactive); in [14] it was > 100 µM (inactive). The GI50 is 36.1 µM (inactive) in assay [15], > 100 µM (inactive) in assay [16], 61.8 µM (inactive) in [17] and 35.8 µM (inactive) in assay [18].

As for `CC(=O)O[C@H]1CC(C)(C)C(=C=C/C(C)=C/C=C/C=C/C=C(C)/C=C2C=C(/C=C/[C@@]34O[C@]3(C)C[C@@H](O)CC4(C)C)C(=O)O/2)[C@](C)(O)C1`, the GI50 in assay [1] was 7.93 µM (inactive); in assay [2], 8.43 µM (inactive); in [4], 1.62 µM (inactive); in assay [5], 14.8 µM (inactive); in [6] it was 15.8 µM (inactive); in assay [7], 15 µM (inactive). Besides, the GI50 in [8] was 10 µM (inactive); in assay [9] it was 5.14 µM (inactive); in assay [10] it was 16 µM (inactive); in assay [11], 19.1 µM (inactive); in [12], 3.85 µM (inactive); in assay [13], 3.81 µM (inactive). Also, the GI50 is 30.6 µM (inactive) in assay [14]; 16.7 µM (inactive) in assay [15]; 30.8 µM (inactive) in [16]; > 10 µM (inactive) in assay [17]; 2.94 µM (inactive) in assay [18].

As to `CCOc1ccc2nc(NC(=O)C(=O)C(c3cnc4ccccc4n3)[N+](=O)[O-])sc2c1` (stereo unspecified), the GI50 is > 100 µM (inactive) in assay [1]; > 100 µM (inactive) in [2]; > 100 µM (inactive) in [3]; > 100 µM (inactive) in assay [4]; 77.3 µM (inactive) in assay [6]; > 100 µM (inactive) in assay [7]. Besides, the GI50 in assay [8] was > 100 µM (inactive); in assay [9], 74.5 µM (inactive); in [10], > 100 µM (inactive); in assay [11] it was > 100 µM (inactive); in assay [19], > 100 µM (inactive); in assay [12] it was 53.1 µM (inactive). Moreover, the GI50 in assay [13] is > 100 µM (inactive); in assay [14], 69.2 µM (inactive); in assay [15] it was > 100 µM (inactive); in assay [16], > 100 µM (inactive); in assay [17], 96.8 µM (inactive); in assay [18], 44.8 µM (inactive).

For `C=C(C)C1(Sc2ccc(OC)cc2)CC1`, the GI50 in assay [1] is 51.9 µM (inactive); in assay [2], 14.6 µM (inactive); in assay [3], 30.5 µM (inactive); in assay [4], 4.81 µM (inactive); in assay [5] it was 7.94 µM (inactive); in [6] it was 12.2 µM (inactive). The GI50 in [7] was 15.8 µM (inactive); in [8], 21.9 µM (inactive); in assay [9] it was 31.2 µM (inactive); in assay [10] it was 29.6 µM (inactive); in [11], 34.2 µM (inactive); in assay [12] it was 13.8 µM (inactive). The GI50 in [13] is 32.3 µM (inactive); in assay [14], 45.4 µM (inactive); in [15], 17.8 µM (inactive); in assay [16] it was 30.5 µM (inactive); in assay [17], 27.6 µM (inactive); in [18], 17.5 µM (inactive).

Turning to `CCOC(=O)N[C@@H]1C2CC(=O)C(O2)[C@@H]1OC` (stereo partly specified), the GI50 in assay [1], in assay [2], in [3], in assay [4], in assay [6] and in assay [7] was > 100 µM (inactive) throughout. For the same compound, the GI50 in assay [8], in [9], in [10], in assay [11], in assay [12] and in [14] was > 100 µM (inactive) each time. The GI50 in [15], in assay [16], in [17] and in [18] was > 100 µM (inactive) throughout.

`COc1ccc(C2(O)c3ccccc3C(=O)N(C)C2(O)c2ccc(OC)cc2)cc1` (stereo unspecified): the GI50 is 48.1 µM (inactive) in assay [1]; 99.1 µM (inactive) in [2]; > 100 µM (inactive) in assay [3]; 17.3 µM (inactive) in assay [5]; 50.7 µM (inactive) in assay [6]; 28.7 µM (inactive) in assay [7]. For the same compound, the GI50 in assay [9] was > 100 µM (inactive); in assay [10], 81.5 µM (inactive); in [11], > 100 µM (inactive); in assay [19], 0.396 µM (active); in [12] it was 24.7 µM (inactive); in assay [13], 54.5 µM (inactive). For the same compound, the GI50 in assay [14] was > 100 µM (inactive); in assay [15], 45.9 µM (inactive); in assay [16] it was 57.1 µM (inactive); in [17], 86.7 µM (inactive); in assay [18] it was 51.8 µM (inactive).

As to `O=C1C(O)=C(Cl)C(=O)c2c(O)ccc(O)c21`, the GI50 in [1], in assay [2], in [6], in [7], in [8] and in [9] was > 100 µM (inactive) each time. Besides, the GI50 in assay [10] was > 100 µM (inactive); in assay [11], > 100 µM (inactive); in [12] it was 10 µM (inactive); in assay [13], > 100 µM (inactive); in assay [14], > 100 µM (inactive); in assay [15], 20.1 µM (inactive). Moreover, the GI50 in [16], in assay [17] and in [18] was > 100 µM (inactive) in each case.

As to `COC(=O)C(Cc1nc2ccccc2nc1O)C(=O)C(=O)Nc1ccc(OC)cc1[N+](=O)[O-]` (stereo unspecified), the GI50 in [1], in assay [2], in [3], in [4], in assay [6] and in [7] was > 100 µM (inactive) in each case. Moreover, the GI50 in assay [9], in assay [10], in [11], in assay [12], in assay [14] and in assay [15] was > 100 µM (inactive) in each case. The GI50 in assay [16], in [17] and in assay [18] was > 100 µM (inactive) in each case.

As for `Cc1ccc2ccccc2c1CC1S(=O)(=O)OCCOS1(=O)=O`, the GI50 is 12.8 µM (inactive) in [2]; 8.67 µM (inactive) in [5]; 14.1 µM (inactive) in [6]; 16 µM (inactive) in assay [9]; 16.4 µM (inactive) in assay [10]; 11.9 µM (inactive) in assay [11]. Moreover, the GI50 in assay [12] was 6.28 µM (inactive); in assay [13], 7.69 µM (inactive); in assay [14], 12.7 µM (inactive); in [15], 11.5 µM (inactive); in [16], 12.1 µM (inactive); in assay [17] it was 16.2 µM (inactive). For the same compound, in assay [18], the GI50 is 6.31 µM (inactive).
